# Laboratory results reported in US5258492A, “LHRH analogues with cytotoxic moieties at the sixth position” (The Administrators of the Tulane Educational Fund, priority 1991, dated 1993).
# Columns and labels:
# [1] = test system: human breast carcinoma cells; conditions: prior art; cited from earlier work
# rat mammary carcinomas = conditions: prior art; compared with ovariectomy; cited from earlier work
# [2] = test system: membrane receptors of rat Dunning tumor; test: Affinity to membrane receptors of rat Dunning tumor using 125I-labeled [D-Trp6]LHRH; assay type: binding
# Protocol: (§1) This is determined by using labelled LHRH and [D-Trp^6 ]LHRH. The assay is carried out similarly to that described by T. Kadar et al., Proc. Natl. Acad. Sci. USA, 85, 890-894 (1988).
# (§2) *Affinity constants of the peptides for the first receptor class, Ka
# (§3) (i.e. for high affinity binding sites) and for the second receptor class,
# (§4) Ka2 (i.e. for low affinity binding sites) of human prostate cancer
# (§5) and rat Dunning tumor, respectively, as determined by using ^125
# (§6) Ilabeled [DTrp^6 ]LHRH.
# [3] = test system: membrane receptors of human prostate cancer; test: Affinity to membrane receptors of human prostate cancer using 125I-labeled [D-Trp6]LHRH; assay type: binding
# Protocol: as §1, §2, §3, §4, §5, §6
# [4] = target: T1, membrane receptors of pituitary of male rats (Rattus norvegicus, UniProt P30969); test: Binding affinity for membrane receptors of rat pituitary using 125I-labeled [D-Trp6]LHRH
# T1 construct: from tissue; host or cells: pituitary of male rats (membranes)
# T1 sequence (P30969 1-327): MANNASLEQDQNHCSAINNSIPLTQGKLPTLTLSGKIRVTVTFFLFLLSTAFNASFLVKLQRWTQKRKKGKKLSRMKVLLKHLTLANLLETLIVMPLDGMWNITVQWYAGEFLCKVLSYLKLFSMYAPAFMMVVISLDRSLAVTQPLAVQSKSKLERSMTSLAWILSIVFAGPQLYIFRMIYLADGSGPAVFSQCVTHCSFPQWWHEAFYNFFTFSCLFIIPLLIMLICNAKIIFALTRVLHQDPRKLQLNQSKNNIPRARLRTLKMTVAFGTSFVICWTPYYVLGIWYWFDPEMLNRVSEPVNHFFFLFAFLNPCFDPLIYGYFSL
# Protocol: as §1
# (§7) Table 2 presents the antiovulatory activity of the claimed compounds having LHRH-inhibiting properties. The inhibitory action was determined in vivo, in 4-day cycling rats as described [A. Corbin and C. W. Beattie, Endocr. Res. Commun., 2, 1-23 (1975)]. Affinities of the claimed compounds to membrane receptors of rat pituitary and human breast cancer cells are also given in Tables 1 and 2 as determined by using [^125 I,D-Trp^6 ]LHRH.
# (§8) **Affinity constants of the peptides for the first receptor class (i.e.
# (§9) for high affinity binding sites) of pituitary of male rats and human
# (§10) breast cancer cells, respectively, as determined by using ^125
# as §6
# (§11) breast cancer cells, respectively, were determined by using ^125
# 4-day cycling rats = test: In vivo antiovulatory activity in 4-day cycling rats; set-up: species or system rat
# Protocol: This activity of the peptides is determined in 4-day-cycling rats as described [A. Corbin and C. W. Beattie, Endocr. Res. Commun., 2, 1-23 (1975)].
# as §7
# *LHRH-inhibiting potencies were assayed in 4day cyclic rats.
# [5] = target: T2, membrane receptors of human breast cancer cells (Homo sapiens, UniProt P30968); test: Binding affinity for membrane receptors of human breast cancer cells using 125I-labeled [D-Trp6]LHRH
# T2 construct: endogenous in cells; host or cells: human breast cancer cells (membranes)
# T2 sequence (P30968 1-328): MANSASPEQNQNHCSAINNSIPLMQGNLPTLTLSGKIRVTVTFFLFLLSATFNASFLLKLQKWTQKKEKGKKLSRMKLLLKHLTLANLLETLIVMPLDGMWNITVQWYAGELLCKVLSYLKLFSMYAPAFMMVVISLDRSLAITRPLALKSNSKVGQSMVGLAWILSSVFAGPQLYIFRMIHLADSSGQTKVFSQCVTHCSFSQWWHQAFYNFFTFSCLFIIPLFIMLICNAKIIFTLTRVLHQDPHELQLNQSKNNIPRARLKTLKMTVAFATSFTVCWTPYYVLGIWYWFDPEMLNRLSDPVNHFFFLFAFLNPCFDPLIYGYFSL
# Protocol: as §1, §7, §8, §9, §10, §6, §11
# LHRH = conditions: prior art; cited from earlier work
# [6] = test system: dispersed rat pituitary cell superfusion system; test: LH release in dispersed rat pituitary cell superfusion system (agonistic activity); assay type: cell-based; conditions: Table 1; peptide infused 3 min, LH released compared to 3 nM LHRH
# Protocol: *LH responses to the analogues were determined in dispersed rat pituitary
# cell superfusion system.
# [7] = test system: rat mammary tumor cell line MT-4; test: Inhibition of 3H-thymidine incorporation into DNA of MT-4 monolayer cultures; assay type: cell-based; conditions: for DPM/Well × 1000: mean +/- standard error
# Protocol: (d) Ability of peptides of Formula I to inhibit incorporation of [^3 H]thymidine into DNA of monolayer cultures the rat mammary tumor cell line MT-4
# This is assayed as described [V. K. Sondak et al., Cancer Research, 44, 1725-1728 (1984); F. Holzel et al., J. Cancer Res. Clin. Oncol. 109, 217-226 (1985); M. Albert et al., J. Cancer Res. Clin. Oncol. 109, 210-216 (1985)].
# To obtain information about the cytotoxic properties of the compounds, the inhibition of ^3 H-thymidine incorporation into DNA of monolayer cultures of the rat mammary tumor cell line MT-4 was studied. Experiments started with 100K MT-4 cells/plate on day 0. Dose was changed 3 times, total incubation time with the sample was 5 days. 1 μCu ^3 H-thymidine/ml was added on day 4.
# [8] = first receptor class (high affinity binding sites)
# [9] = Table 2, high affinity binding sites
# [10] = second receptor class (low affinity binding sites)
# [11] = Table 1, high affinity binding sites
# [12] = DME Medium + 0% Serum, 1 ng/ml (6 × 10^-10 M)
# [13] = DME Medium + 0% Serum, 10 ng/ml
# [14] = DME Medium + 0% Serum, 100 ng/ml
# [15] = DME Medium + 0% Serum, 1000 ng/ml
# [16] = DME Medium + 0% Serum, 2000 ng/ml
# [17] = DME Medium + 10% Serum, 1 ng/ml (6 × 10^-10 M)
# [18] = DME Medium + 10% Serum, 10 ng/ml
# [19] = DME Medium + 10% Serum, 100 ng/ml
# [20] = DME Medium + 10% Serum, 1000 ng/ml
# [21] = DME Medium + 10% Serum, 2000 ng/ml
molecule,measurement,setting,value
CCNC(=O)[C@@H]1CCCN1C(=O)[C@H](CCCNC(=N)N)NC(=O)[C@H](CC(C)C)NC(=O)[C@@H](COC(C)(C)C)NC(=O)[C@H](Cc1ccc(O)cc1)NC(=O)[C@H](CO)NC(=O)[C@H](Cc1c[nH]c2ccccc12)NC(=O)[C@H](Cc1cnc[nH]1)NC(=O)[C@@H]1CCC(=O)N1 [Example A3],growth of human breast carcinoma cells containing LHRH binding sites (in words),[1],inhibited
CC(C)C[C@H](NC(=O)[C@@H](COC(C)(C)C)NC(=O)[C@H](Cc1ccc(O)cc1)NC(=O)[C@H](CO)NC(=O)[C@H](Cc1c[nH]c2ccccc12)NC(=O)[C@H](Cc1cnc[nH]1)NC(=O)[C@@H]1CCC(=O)N1)C(=O)N[C@@H](CCCNC(=N)N)C(=O)N1CCC[C@H]1C(=O)NNC(N)=O [Example A4],effectiveness in treatment of rat mammary carcinomas (in words),rat mammary carcinomas,as effective as ovariectomy
"CC(C)C[C@H](NC(=O)[C@@H](Cc1c[nH]c2ccccc12)NC(=O)[C@H](Cc1ccc(O)cc1)NC(=O)[C@H](CO)NC(=O)[C@H](Cc1c[nH]c2ccccc12)NC(=O)[C@H](Cc1c[nH]cn1)NC(=O)[C@@H]1CCC(=O)N1)C(=O)N[C@@H](CCCNC(=N)N)C(=O)N1CCC[C@H]1C(=O)NCC(N)=O [[D-Trp^6]-LHRH, [D-Trp^6]LHRH, reference compound]",Dunning tumor Ka1,[2]; [8],1.87 nM⁻¹
same,Human prostate cancer Ka1,[3]; [8],0.04 nM⁻¹
Ac-D-Nal(2)-D-Phe(4 Cl)-D-Trp-Ser-Arg-D-Lys[(Cu^++)(POL)2 (DL-A2 pr)]-Leu-Arg-Pro-D-Ala-NH2 [Example XXIII],"Binding affinity, Ka1, for membrane receptors of pituitary",[4]; [9],7.622 nM⁻¹
same,% Blockade of ovulation,4-day cycling rats; Dose 10 μg/rat,40%
same,"Binding affinity, Ka1, for membrane receptors of cancer cells",[5]; [9],3.408 nM⁻¹
Ac-D-Nal(2)-D-Phe(4Cl)-D-Pal(3)-Ser-Arg-D-Lys[(Cu^++)(POL)2 (DL-A2 pr)]-Leu-Arg-Pro-D-Ala-NH2 [XXIV],"Binding affinity, Ka1, for membrane receptors of pituitary",[4]; [9],5.483 nM⁻¹
same,% Blockade of ovulation,4-day cycling rats; Dose 3 μg/rat,50%
same,"Binding affinity, Ka1, for membrane receptors of cancer cells",[5]; [9],2.628 nM⁻¹
Ac-D-Nal(2)-D-Phe(4Cl)-D-Pal(3)-Ser-Arg-D-Lys[(Cu^++)(POLP)2 (DL-A2 pr)]-Leu-Arg-Pro-D-Ala-NH2 [Example XX],"Binding affinity, Ka1, for membrane receptors of pituitary",[4]; [9],5.250 nM⁻¹
same,% Blockade of ovulation,4-day cycling rats; Dose 3 μg/rat,80%
same,"Binding affinity, Ka1, for membrane receptors of cancer cells",[5]; [9],2.436 nM⁻¹
Ac-D-Nal(2)-D-Phe(4Cl)-D-Pal(3)-Ser-Arg-D-Lys[(Ni^++)(SAL)2 (DL-A2 pr)]-Leu-Arg-Pro-D-Ala-NH2 [XIII],"Binding affinity, Ka1, for membrane receptors of pituitary",[4]; [9],1.821 nM⁻¹
same,% Blockade of ovulation,"4-day cycling rats; rat, in vivo",100
same,"Binding affinity, Ka1, for membrane receptors of cancer cells",[5]; [9],0.878 nM⁻¹
Ac-D-Nal(2)-D-Phe(4Cl)-D-Trp-Ser-Arg-D-Lys[(Cu^++)(POLP)2 (DL-A2 pr)]-Leu-Arg-Pro-D-Ala-NH2 [Example XXII],"Binding affinity, Ka1, for membrane receptors of pituitary",[4]; [9],2.901 nM⁻¹
same,% Blockade of ovulation,4-day cycling rats; Dose 10 μg/rat,60%
same,"Binding affinity, Ka1, for membrane receptors of cancer cells",[5]; [9],1.337 nM⁻¹
Ac-D-Nal(2)-D-Phe(4Cl)-D-Trp-Ser-Arg-D-Lys[(Cu^++)(SAL)2 (DL-A2 pr)]-Leu-Arg-Pro-D-Ala-NH2 [XII],"Binding affinity, Ka1, for membrane receptors of pituitary",[4]; [9],9.183 nM⁻¹
same,% Blockade of ovulation,4-day cycling rats; Dose 3 μg/rat,20%
same,"Binding affinity, Ka1, for membrane receptors of cancer cells",[5]; [9],4.951 nM⁻¹
Ac-D-Nal(2)-D-Phe(4Cl)-D-Trp-Ser-Arg-D-Lys[(Ni^++)(SAL)2 (DL-A2 pr)]-Leu-Arg-Pro-D-Ala-NH2 [Example XV],"Binding affinity, Ka1, for membrane receptors of pituitary",[4]; [9],8.676 nM⁻¹
same,% Blockade of ovulation,4-day cycling rats; Dose 3 μg/rat,20%
same,"Binding affinity, Ka1, for membrane receptors of cancer cells",[5]; [9],4.418 nM⁻¹
Ac-D-Nal(2)-D-Phe(4Cl)-D-Trp-Ser-Arg-D-Mel-Leu-Arg-Pro-D-Ala-NH2 [IIA],Dunning tumor Ka2,[2]; [10],25.1 µM⁻¹
same,Human prostate cancer Ka2,[3]; [10],0.97 µM⁻¹
"[Chlorambucil-D-Leu^2,D-Leu^3,D-Ala^6 ]LHRH (2-10)",activity of Chlorambucil-linked LHRH agonist / antagonist analogue (in words),LHRH,moderate activities
"[Chlorambucil-D-Phe^1,D-Phe^2,D-Trp^3,6 ]LHRH",activity of Chlorambucil-linked LHRH agonist / antagonist analogue (in words),LHRH,practically inactive
[D-Lys(Chlorambucil)^6 ] LHRH,activity of Chlorambucil-linked LHRH agonist / antagonist analogue (in words),LHRH,moderate activities
pGlu-His-Trp-Ser-Tyr-D-Lys[(Cu^++)(SAL)2 (A2 pr)]-Leu-Arg-Pro-Gly-NH2 [Example VII],"Binding affinity, Ka1, for membrane receptors of pituitary",[4]; [11],7.968 nM⁻¹
same,"Binding affinity, Ka1, for membrane receptors of cancer cells",[5]; [11],3.589 nM⁻¹
same,"Hormonal activity, LH responses rel. to LHRH (= 1)",[6],10
same,% Inhibition,[7]; [12],41%
same,DPM/Well × 1000,[7]; [12],249 +/- 30.5 DPM/Well × 1000
same,% Inhibition,[7]; [13],42%
same,DPM/Well × 1000,[7]; [13],242 +/- 32.1 DPM/Well × 1000
same,% Inhibition,[7]; [14],56%
same,DPM/Well × 1000,[7]; [14],186 +/- 13.2 DPM/Well × 1000
same,% Inhibition,[7]; [15],52%
same,DPM/Well × 1000,[7]; [15],204 +/- 40.9 DPM/Well × 1000
same,% Inhibition,[7]; [16],41%
same,DPM/Well × 1000,[7]; [16],249 +/- 45.1 DPM/Well × 1000
same,% Inhibition,[7]; [17],53%
same,DPM/Well × 1000,[7]; [17],48 +/- 8.6 DPM/Well × 1000
same,% Inhibition,[7]; [18],61%
same,DPM/Well × 1000,[7]; [18],40 +/- 6.7 DPM/Well × 1000
same,% Inhibition,[7]; [19],59%
same,DPM/Well × 1000,[7]; [19],42 +/- 10.4 DPM/Well × 1000
same,% Inhibition,[7]; [20],65%
same,DPM/Well × 1000,[7]; [20],36 +/- 5.1 DPM/Well × 1000
same,% Inhibition,[7]; [21],62%
same,DPM/Well × 1000,[7]; [21],39 +/- 4.6 DPM/Well × 1000
same,inhibition of 3H-thymidine incorporation into DNA (in words),[7]; concentration of 6×10^-10 M,strong inhibitory effect
